Laboratory results as given in article PMC9962735, “Synthesis and Cytotoxic Activity of the Derivatives of N-(Purin-6-yl)aminopolymethylene Carboxylic Acids and Related Compounds” (Molecules, 2023).

Assays:
[1] = MTT cytotoxicity assay, CT-26; type: cell-based, murine; conditions: mouse (CT-26) and human (WI-38); CC50 of WI-38 divided by CC50 of CT-26; read-out: SCI (selective cytotoxicity index)
Excerpt: (§1) The cytotoxicity of the test compounds was studied using the MTT assay against a number of cell lines: CT-26 murine colon carcinoma, 4T1 murine mammary carcinoma, MDA-MB-231 human breast adenocarcinoma, COLO201 human colorectal adenocarcinoma, HepG2 human hepatocellular carcinoma, A549 human non-small-cell lung carcinoma, SK-BR-3 human breast adenocarcinoma, SNU-1 human gastric carcinoma, Jurkat human acute T-lymphoblastic leukemia, and WI-38 human lung fibroblasts (normal cells). Doxorubicin (Dox) was used as a reference drug. Cells were incubated with test compounds for 72 h.
(§2) Cells were seeded in flat-bottomed 96-well plates at 10,000 cells per well (for A549, SNU-1, WI-38, CT-26, MDA-MB-231, 4T1, and HepG2 cells) or 20,000 cells per well (for SK-BR-3, Jurkat, and COLO201 cells) and cultivated in complete culture mediums (for composition of each medium, see the Supplementary Materials, Table S1) in a CO2 incubator at 37 °C. At the first stage of this study, the test compounds dissolved in DMSO were added to the wells with cells at final concentrations from 1 × 10^–4 to 1 × 10^–10 mol/L (A549, SK-BR-3, SNU-1, Jurkat, and WI-38) or 1 × 10^–3 to 1 × 10^–8 mol/L (CT-26, MDA-MB-231, 4T1, COLO201, and HepG2); DMSO concentration in the wells was finally 1%. A complete cultural medium and DMSO were added to the control wells at the same concentration as in the experimental wells; 0.1% Triton X-100 solution (10 µL) was added to the corresponding wells as a non-specific positive control. After adding the test compounds, the cells were incubated for 72 h in an atmosphere containing 5% CO2. After that, the nutrient medium was removed from each well (in the case of SK-BR-3, Jurkat, and COLO201, plates were pre-centrifuged at 1500 rpm for 6 min). A solution of the commercial anticancer agent Doxorubicin (Dox, Sigma-Aldrich, St. Louis, MO, USA) in DMSO was used as a reference drug. Then, 150 µL of a complete medium with the MTT reagent (PanEco, Moscow, Russia) at a concentration of 0.5 mg/mL was added and incubated for 2 h. Formazan crystals were dissolved in DMSO (200 µL) and the absorbance in the wells was measured at 540 nm and a reference wavelength of 650 nm (Sunrise, Tecan, Groding, Austria). Experiments were performed in three parallel runs. Cell viability after incubation in the presence of test compounds was calculated in relation to cell viability in the control wells according to the Formula (1):Cell viability (%) = (Aexp/Ac) × 100,(1) where Aexp is the optical density of solutions in the wells containing test compounds; Ac is the optical density of solutions in control wells without test compounds. For detailed information on cell viability of various cell lines, see the Supplementary Materials, Figures S21–S26.
(§3) At the second stage of this study, in order to more accurately calculate the CC50 (the half maximal inhibitory concentration), the cytotoxic effect of test compounds was evaluated at concentrations close to CC50 found at the first stage. The study of the cytotoxic activity of each substance towards the cells of each line was carried out in triplicate; the mean value was used to calculate CC50. The CC50 values were determined by non-linear regression analysis using Graph-Pad Prism7.

[2] = tested on: CT-26 murine colon carcinoma; assay: MTT cytotoxicity assay, CT-26; type: cell-based; conditions: Mus musculus, CT26; for viability at 100 µM: CT-26, 1 × 10^–4 M, mean ± SD (n = 3), read-out: Cell viability; for CC50: CT-26, 72 h incubation, MTT, n = 3
Excerpt: as §1, §2, §3

[3] = MTT cytotoxicity assay, Jurkat; type: cell-based, human; conditions: human, read-out: SCI (selective cytotoxicity index)
Excerpt: as §1, §2, §3

[4] = tested on: Jurkat human acute T-lymphoblastic leukemia; assay: MTT cytotoxicity assay, Jurkat; type: cell-based; conditions: Homo sapiens, Jurkat; for CC50: 72 h, 72 h incubation, MTT; for viability at 100 µM: 1 × 10^–4 M, mean ± SD (n = 3), read-out: Cell viability
Excerpt: as §1, §2, §3

[5] = MTT cytotoxicity assay, SK-BR-3; type: cell-based, human; conditions: human, read-out: SCI (selective cytotoxicity index)
Excerpt: as §1, §2, §3

[6] = tested on: SK-BR-3 human breast adenocarcinoma; assay: MTT cytotoxicity assay, SK-BR-3; type: cell-based; conditions: Homo sapiens; for CC50: SK-BR-3, 72 h, SK-BR-3, 72 h incubation, MTT; for viability at 100 µM: SK-BR-3, 1 × 10^–4 M, mean ± SD (n = 3), read-out: Cell viability
Excerpt: as §1, §2, §3

[7] = MTT cytotoxicity assay, SNU-1; type: cell-based, human; conditions: human, read-out: SCI (selective cytotoxicity index)
Excerpt: as §1, §2, §3

[8] = tested on: SNU-1 human gastric carcinoma; assay: MTT cytotoxicity assay, SNU-1; type: cell-based; conditions: Homo sapiens; for CC50: SNU1, 72 h, SNU-1, 72 h incubation, MTT; for viability at 100 µM: SNU1, SNU-1, 1 × 10^–4 M, mean ± SD (n = 3), read-out: Cell viability
Excerpt: as §1, §2, §3

[9] = MTT cytotoxicity assay, MDA-MB-231; type: cell-based, human; conditions: human; CC50 of WI-38 divided by CC50 of MDA-MB-231; read-out: SCI (selective cytotoxicity index)
Excerpt: as §1, §2, §3

[10] = tested on: MDA-MB-231 human breast adenocarcinoma; assay: MTT cytotoxicity assay, MDA-MB-231; type: cell-based; conditions: Homo sapiens; for viability at 100 µM: MDA-MB-231, 1 × 10^–4 M, mean ± SD (n = 3), read-out: Cell viability; for CC50: MDA-MB-231, 72 h incubation, MTT, n = 3
Excerpt: as §1, §2, §3

[11] = MTT cytotoxicity assay, 4T1; type: cell-based, murine; conditions: mouse (4T1) and human (WI-38); CC50 of WI-38 divided by CC50 of 4T1; read-out: SCI (selective cytotoxicity index)
Excerpt: as §1, §2, §3

[12] = tested on: 4T1 murine mammary carcinoma; assay: MTT cytotoxicity assay, 4T1; type: cell-based; conditions: Mus musculus; for viability at 100 µM: 4T1, 1 × 10^–4 M, mean ± SD (n = 3), read-out: Cell viability; for CC50: 4T1, 72 h incubation, MTT, n = 3
Excerpt: as §1, §2, §3

[13] = tested on: COLO201 human colorectal adenocarcinoma; assay: MTT cytotoxicity assay, COLO201; type: cell-based; conditions: Homo sapiens, COLO 201; for viability at 100 µM: COLO201, 1 × 10^–4 M, mean ± SD (n = 3), read-out: Cell viability; for CC50: COLO201, 72 h incubation, MTT, n = 3
Excerpt: as §1, §2, §3

[14] = MTT cytotoxicity assay, COLO201; type: cell-based, human; conditions: human; CC50 of WI-38 divided by CC50 of COLO201; read-out: SCI (selective cytotoxicity index)
Excerpt: as §1, §2, §3

[15] = CC50 of WI-38 divided by CC50 of Jurkat (Table 1)
[16] = CC50 of WI-38 divided by CC50 of SK-BR-3 (Table 1)
[17] = CC50 of WI-38 divided by CC50 of SNU-1 (Table 1)

Row | SMILES | selectivity ratio at 72 h [1] | viability at 100 µM [2] | CC50 [2] | selectivity ratio at 72 h [3, 15] | CC50 ([4]; n = 3 (Table 1)) | viability at 100 µM [4] | selectivity ratio at 72 h [5, 16] | CC50 ([6]; n = 3 (Table 1)) | viability at 100 µM [6] | selectivity ratio at 72 h [7, 17] | CC50 ([8]; n = 3 (Table 1)) | viability at 100 µM [8] | selectivity ratio at 72 h [9] | viability at 100 µM [10] | CC50 [10] | selectivity ratio at 72 h [11] | viability at 100 µM [12] | CC50 [12] | viability at 100 µM [13] | CC50 [13] | further results
1 | CC1COc2c(ccc(F)c2F)N1C(=O)CCCCCCCCCCNc1ncnc2[nH]cnc12 (stereo not drawn) [Compound 1d] | 1.1 | 2 ± 1% | 19 µM | 2.5 | 8.5 µM | 10 ± 4% | 0.28 | 75 µM | 8 ± 2% | 3 | 7 µM | 5 ± 1% | 0.48 | 4 ± 2% | 44 µM | 0.91 | 2 ± 1% | 23 µM | 1 ± 1% | 0.68 µM | selectivity ratio at 72 h ([3]; CC50 of WI-38 divided by CC50 of Jurkat (Table 3)): 2.1; CC50 ([4]; n = 3 (Table 3)): 10 µM; selectivity ratio at 72 h ([5]; CC50 of WI-38 divided by CC50 of SK-BR-3 (Table 3)): 0.75; CC50 ([6]; n = 3 (Table 3)): 28 µM; selectivity ratio at 72 h ([7]; CC50 of WI-38 divided by CC50 of SNU-1 (Table 3)): 10; CC50 ([8]; n = 3 (Table 3)): 2 µM; selectivity ratio at 72 h [14]: 31
2 | CC1COc2c(ccc(F)c2F)N1C(=O)CCCCCCCNc1ncnc2[nH]cnc12 (stereo not drawn) [Compound 1c] | 2.6 | 2 ± 1% | 19 µM | 5.9 | 8.5 µM | 8 ± 2% | 0.67 | 75 µM | 8% | 7.1 | 7 µM | 6 ± 2% | 1.2 | 5 ± 5% | 44 µM | 2.2 | 2 ± 2% | 23 µM | 2 ± 1% | 0.68 µM | selectivity ratio at 72 h [14]: 73
